Data taken from patent US7176322B2, “Calcium receptor modulating agents” (Amgen Inc., priority 2002, dated 2007).

Molecular target: T1, human parathyroid cell Ca2+ receptor (hPCaR) (Homo sapiens, UniProt P41180)
T1 construct: expressed in transfected cells
T1 sequence (P41180 20-1078): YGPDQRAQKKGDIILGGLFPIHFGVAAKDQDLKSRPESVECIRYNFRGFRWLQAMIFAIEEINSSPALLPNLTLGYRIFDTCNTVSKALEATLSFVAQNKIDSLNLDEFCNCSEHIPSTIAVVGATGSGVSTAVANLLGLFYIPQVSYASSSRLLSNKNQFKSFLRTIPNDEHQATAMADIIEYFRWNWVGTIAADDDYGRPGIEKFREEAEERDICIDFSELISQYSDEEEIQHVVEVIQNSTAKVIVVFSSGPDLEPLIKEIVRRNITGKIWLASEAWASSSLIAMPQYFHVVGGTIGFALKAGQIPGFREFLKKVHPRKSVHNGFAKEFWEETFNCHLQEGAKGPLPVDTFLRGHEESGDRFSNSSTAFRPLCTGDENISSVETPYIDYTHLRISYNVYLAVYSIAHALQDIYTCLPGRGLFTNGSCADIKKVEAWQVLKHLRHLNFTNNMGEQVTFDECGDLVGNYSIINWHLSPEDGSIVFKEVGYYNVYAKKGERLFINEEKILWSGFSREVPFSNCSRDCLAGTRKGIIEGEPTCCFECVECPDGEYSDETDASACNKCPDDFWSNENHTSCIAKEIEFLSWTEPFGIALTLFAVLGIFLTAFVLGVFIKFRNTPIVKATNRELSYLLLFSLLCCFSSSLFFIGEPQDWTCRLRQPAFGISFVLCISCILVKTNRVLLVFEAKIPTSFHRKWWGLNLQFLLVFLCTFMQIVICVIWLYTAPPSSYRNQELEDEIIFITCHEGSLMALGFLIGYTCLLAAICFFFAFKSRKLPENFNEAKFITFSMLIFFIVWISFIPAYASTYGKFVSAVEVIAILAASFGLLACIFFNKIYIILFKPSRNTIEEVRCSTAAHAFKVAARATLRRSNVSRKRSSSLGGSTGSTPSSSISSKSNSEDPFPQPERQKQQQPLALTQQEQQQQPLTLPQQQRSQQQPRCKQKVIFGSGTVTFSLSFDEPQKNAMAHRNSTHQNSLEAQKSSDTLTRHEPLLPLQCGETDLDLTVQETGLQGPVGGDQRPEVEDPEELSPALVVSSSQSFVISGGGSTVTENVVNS
Assay: [Ca2+]i measurement (fluo-3 fluorescence) in HEK 293 4.0-7 cells stably transfected with hPCaR
Format: cell-based
Conditions: HEK 293 4.0-7 cells expressing hPCaR; fluo-3, excitation 485 nm / emission 530 nm
Protocol: The activities of the compounds of the present invention on calcium receptors were measured. In one embodiment, the measurement was performed in accordance with the method described in Example 4 of Nemeth et al., PCT/US95/13704 (International Publication No. WO96/12697) herein incorporated by reference.
A 4.0-kb NotI-HindIII fragment of the human parathyroid cell Ca^2+ receptor (hPCaR) cDNA was subcloned into the mammalian expression vector pCEP4 (Invitrogen) containing the hygromycin-resistant gene as a selectable marker. This plasmid was transfected into HEK 293 cells by calcium phosphate precipitation. Transfected cells were grown in Dulbecco's modified Eagle's medium containing 10% fetal bovine serum and hygromycin (200 μg/mL). Hygromycin-resistant colonies were subcloned and assayed for hPCaR mRNA by solution hybridization using a ^32P-labeled RNA probe complementary to the (4.0 kb) hPCaR sequence (Garrett, et al., J. Biol. Chem. 270, 12919–12925 (1995)). Clone 7 was used to assess the effects of compounds on [Ca^2+]i. This stably transfected cell line is termed HEK 293 4.0–7. For measurements of [Ca^2+]i, the cells were recovered from tissue culture flasks by brief treatment with 0.02% EDTA and then washed and resuspended in PCB containing 1 mM CaCl2 and 0.1% Bovine Serum Albumin (“BSA”). The cells were loaded with fluo-3 by incubation for 30 min at 37° C., with parathyroid cell buffer (126 mM NaCl, 4 mM KCl, 1 mM MgSO4, 0.7 mM K2HPO4/KH2PO4, 20 mM HEPES.NaOH (pH 7.45)) containing 0.5% BSA in 1 mM CaCl2 and 2 μM fluo-3 acetoxymethyl ester. The cells were subsequently washed, each test compound was added to the cells and the fluorescence was recorded by using excitation and emission wavelengths of 485 and 530 nm, respectively.

EC50, ≤ 10 µM:
CCn1nc2ccc(CN[C@H](C)c3ccccc3)cc2n1 [Example 6, (R)-N-(1-(Phenyl)ethyl)-N-(2′-ethyl-benzotriazol-5-ylmethyl)amine]
CCn1c2c(c3cc(CN[C@H](C)c4ccccc4)ccc31)CN(C)CC2 [Example 13]
CCn1cc(-c2ccc(OC(F)(F)F)cc2)c2cc(CN[C@H](C)c3ccccc3)ccc21 [Example 29, (1R)-N-((1-ethyl-3-(4-((trifluoromethyl)oxy)phenyl)-1H-indol-5-yl)methyl)-1-phenylethanamine]
C[C@@H](NCc1ccc2c(c1)c1ccccc1n2CCCN(C)C)c1cccc2ccccc12 [Example 24]
C[C@@H](NCc1ccc2c(c1)ncn2C)c1ccccc1 [Example 12, (R)-N-(1-(Phenyl)ethyl)-N-((1-methylbenzimidazol-5-yl)methyl)amine]
C[C@@H](NCc1ccc2[nH]ccc2c1)c1cccc2ccccc12 [Example 25, (1R)-N-(1H-indol-5-ylmethyl)-1-(1-naphthalenyl)ethanamine]
CCn1ccc2cc(CN[C@H](C)c3cccc4ccccc34)ccc21 [Example 18, (R)-N-(1-(1-Naphthyl)ethyl)-N-((1-ethylindole-5-yl)methyl)amine]
CCn1c2ccccc2c2cc(CN[C@H](C)c3cccc(OC)c3)ccc21 [(R)-N-(1-(3-Methoxyphenyl)ethyl)-N-(9-ethyl-3-carbazolylmethyl)amine]
CCn1c2c(c3cc(CN[C@H](C)c4ccccc4)ccc31)COCC2 [Example 19]
CCn1nc2ccc(CN[C@H](C)c3cccc(OC)c3)cc2n1 [Example 5, (R)-N-(1-(3-Methoxyphenyl)ethyl)-N-(2′-ethyl-benzotriazol-5-ylmethyl)amine]
CCn1nc2ccc(CN[C@H](C)c3cccc4ccccc34)cc2n1 [Example 4, (R)-N-(1-(1-Naphthyl)ethyl)-N-(2′-ethyl-benzotriazol-5-ylmethyl)amine]
CCn1c2ccccc2c2cc(CN[C@H](C)c3ccccc3)ccc21 [Example 17, (R)-N-(1-(Phenyl)ethyl)-N-(9-ethyl-3-carbazolylmethyl)amine]
C[C@@H](NCc1ccc2c(c1)ncn2C)c1cccc2ccccc12 [Example 11, (R)-N-(1-(1-Naphthyl)ethyl)-N-((1-methylbenzimidazol-5-yl)methyl)amine]
CCn1c2c(c3cc(CN[C@H](C)c4ccccc4)ccc31)CCC2 [Example 10]
CCn1cc(-c2ccccc2)c2cc(CN[C@H](C)c3ccccc3)ccc21 [Example 28, (1R)-N-((1-ethyl-3-phenyl-1H-indol-5-yl)methyl)-1-phenylethanamine]
CCn1c2ccccc2c2cc(CN[C@H](C)c3cccc4ccccc34)ccc21 [(R)-N-(1-(1-Naphthyl)ethyl)-N-(9-ethyl-3-carbazolylmethyl)amine]
CCn1c2c(c3cc(CN[C@H](C)c4cccc(OC)c4)ccc31)CN(C)CC2 [Example 14]
CCn1c2c(c3cc(CN[C@H](C)c4cccc(OC)c4)ccc31)COCC2 [Example 20]
CCn1c2ccc(CN[C@H](C)c3cccc(OC)c3)cc2c2cc(OC)ccc21 [Example 8, (R)-N-(1-(3-Methoxyphenyl)ethyl)-N-(9-ethyl-6-methoxy-3-carbazolylmethyl)amine]
CCn1c2c(c3cc(CN[C@H](C)c4cccc5ccccc45)ccc31)COCC2 [Example 21]
